Results as given in patent US8729053B2, “Nuclear factor kappa B pathway inhibitor composition and use of same” (The United States of America, as represented by the …, priority 2008, dated 2014).
Structures can show the parent of a compound that is named as a salt.

Assays:
[1] = test system: MCF-7, T47D, and MDA-MB-231 breast cancer cells; assay: XTT assay in breast cancer cells; type: cell-based; details: 10 μM
Method: In order to evaluate the potential therapeutic activity of the compound, tests for the biological activity of compound I were performed. The compound is non-toxic to MCF-7, T47D, and MDA-MB-231 breast cancer cells as estimated by XTT assay at 10 μM. To determine the effects of compound I on invasion by breast cancer cell lines, a matrigel invasion assay was used. The levels of phosphorylated IκBα were confirmed in TPA treated ER-positive (MCF-7 and T47D) and ER-negative (MDA-MB-231) breast cancer cell lines and compared the levels to those after pretreatment with compound I. Although induced levels of phosphorylated IκBα varied with the cell line, IκBα phosphorylation was eliminated by compound I treatment in all three breast cancer cell lines. Compound I also produced no effect on the estrogen receptor activity in the ER-positive breast cancer cells using ERE promoter luciferase reporter assay. Invasion capacity of breast cancer cells was increased by TPA stimulation compared to DMSO treated vehicle control. […] Following anchorage-independent colony induction in TPA-treated cells without or with compound I, colonies were lysed and measured with CyQuant GR Dye to detect DNA by fluorescence plate reader as a measure of colony count. Total transformed colony numbers were calculated from RFU and cell dose curve of JB6 cells. […]

[2] = test system: AP-1; assay: AP-1 luciferase reporter assay in HEK293 cells; type: cell-based
Method: All expression plasmids were transiently transfected into HEK293 cells in a 96-well plate (0.1 μg/well) by using Effectene transfection reagent (Qiagen, Valencia, Calif.) according to the manufacturer's manual. HEK293 cells were maintained in Dulbecco's modified Eagle medium (Sigma, St. Louis, Mo.) supplemented with 10% fetal bovine serum (Atlanta Biologicals, Lawrenceville, Ga.) and incubated at 37° C. in a 5% CO2 incubator. After 24 hrs incubation, the medium was changed to DMEM with 0.2% FBS, and the transfectants were exposed to various concentrations of compound I and TPA (10 ng/ml). Cells were lysed with passive lysis buffer and the luciferase assay was performed using the Firefly-Luciferase reporter assay system (Promega, Madison, Wis.) and MLX Luminometer (Dynex Technology, Chantilly, Va.).
Three different luciferase reporter genes, AP-1 reporter containing four times TRE consensus originated from GCN4 and SRE reporter purchased from Stratagene (La Jolla, Calif.) respectively are as described previously (Suzukawa et al., Environ. Health Perspect., 2002, 110, 865-70). NFκB reporter is driven by five times NFκB responsive element inserted into Cis-reporter backbone (Stratagene, La Jolla, Calif.). Others include mouse COX-2 promoter region from −203 to +70 relative to the transcription site inserted into pTIS10L vector (Kim and Fischer, J. Biol. Chem., 1998, 273, 27686-94), human uPAR promoter region from −141 to +47 relative to transcription start site in pGL3 vector (Wang et al., Eur. J. Biochem., 2000, 267, 3248-54), and human VEGF promoter sequence from −2274 to +379 inserted into the pGL2 vector (Ding et al., J. Biol. Chem., 2006, 281, 9093-100). […]

[3] = test system: NFκB; assay: EMSA of NFκB DNA binding, HEK293 nuclear fractions; type: cell-based
Method: EMSA was performed with the nuclear fraction of HEK293 cell using LightShift Chemiluminescent EMSA Kit (Pierce Biotechnology, Rockford, Ill.) according to the manufacture's instruction. Oligonucleotides for NFκB, NF-1, and AP-1 were labeled with biotin by Biotin 3′ End DNA labeling Kit (Pierce Biotechnology, Rockford, Ill.). The quantified 15 μg of nuclear extracts were incubated for 20 mins with 1 μg/μl Poly (dI.dC), biotin end-label target nucleotides in 20 μl binding buffer DNA-protein complexes were fractionated on 6% a polyacrylamide gel and transferred to a nylon membrane. The membranes were processed to detect biotin-label DNA by cross-linking, blocking, and detection incubations. Results were obtained by X-ray film exposure for 10 sec and development. The target sequences of oligonucleotides for NFκB, NF-1, and AP-1 are as follows;
To determine whether the effect of compound I on nuclear translocation of NFκB leads to inhibited binding of NFκB proteins to DNA, EMSA in HEK293 cells was performed. […] TPA-induced binding complex was attenuated by pretreatment with compound I in a dose-dependent manner (lanes 5-9). This binding inhibition parallels the inhibition of luciferase reporter transactivation and inhibition of nuclear translocation of NFκB proteins. The TPA-induced binding complex disappeared when the labeled NFκB oligonucleotide was competed with an excess of unlabelled probe (90× fold).

[4] = biological target: IKKα (Homo sapiens, UniProt O15111); assay: Off-chip incubation mobility-shift kinase assay, IKKα; type: biochemical; details: fully activated, phosphorylated IKKα; 1.25, 2.50, 5.00, and 10.00 μM
Method: In an attempt to determine whether compound I interferes with ATP binding to the catalytic site, the activity of compound I was measured with fully activated, phosphorylated IKKα or IKKβ. […] However, whether this compound interacts outside of the ATP binding pocket of IKK as an ATP non-competitive inhibitor similar to BMS-345541 is unknown. […] Luciferase activities with TPA induction alone were set at 100% and the relative activities with TPA in the presence of compounds are shown.

IKKα, sequence (O15111 whole entry, species assumed): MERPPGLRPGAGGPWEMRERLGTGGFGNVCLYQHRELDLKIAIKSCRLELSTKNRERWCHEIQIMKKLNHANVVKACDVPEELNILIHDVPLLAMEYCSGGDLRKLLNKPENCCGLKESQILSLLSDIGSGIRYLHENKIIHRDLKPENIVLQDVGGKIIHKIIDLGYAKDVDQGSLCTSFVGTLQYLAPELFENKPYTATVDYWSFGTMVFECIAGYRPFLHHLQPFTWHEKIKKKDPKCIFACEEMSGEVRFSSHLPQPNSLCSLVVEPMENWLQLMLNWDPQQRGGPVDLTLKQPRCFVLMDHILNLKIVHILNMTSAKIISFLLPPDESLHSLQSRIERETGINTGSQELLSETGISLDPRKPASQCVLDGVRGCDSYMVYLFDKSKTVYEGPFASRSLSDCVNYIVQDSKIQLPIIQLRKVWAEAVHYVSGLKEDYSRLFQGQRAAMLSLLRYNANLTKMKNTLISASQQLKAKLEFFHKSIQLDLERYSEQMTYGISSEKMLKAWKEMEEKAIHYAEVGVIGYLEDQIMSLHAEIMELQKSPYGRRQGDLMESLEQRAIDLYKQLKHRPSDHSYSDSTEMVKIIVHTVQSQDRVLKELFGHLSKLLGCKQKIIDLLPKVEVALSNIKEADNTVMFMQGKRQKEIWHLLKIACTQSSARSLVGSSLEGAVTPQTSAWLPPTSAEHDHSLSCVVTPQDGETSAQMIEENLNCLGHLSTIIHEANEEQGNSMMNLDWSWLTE

IC50 ([2]; HEK293, 1 h pretreatment, TPA 10 ng/ml 18 hrs, read-out: IC50 for inhibition of TPA induced AP-1): 17 µM
NFκB DNA binding ([3]; concentrations as low as 1.1 μM): repressed
TPA-induced NFκB DNA binding complex, dose-dependent manner ([3]; lanes 5-9, 1 hour pretreatment, TPA 18 hours): attenuated
TPA-induced NFκB DNA binding complex ([3]; pretreatment at 17 μM): marked loss of binding complex
Inhibition of IKKα activity, phosphorylation of a peptide substrate [4]: does not inhibit
SMILES: Cc1cc(N)ccc1N=Nc1ccc(S(=O)(=O)CCOS(=O)(=O)O)cc1 [compound I, 2-(4-((4-amino-2-methylphenyl)diazenyl)phenylsulfonyl)ethyl hydrogen sulfate]
Toxicity estimated by XTT assay [1]: non-toxic
AP-1 luciferase activity, % of the activity with TPA alone ([2]; compound at 17.0 μM, HEK293, TPA 10 ng/ml 18 hrs): 50%
